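Assay format: 96-well plates, 48-hour exposure. TGI: concentration producing complete growth inhibition.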

Some test systems named below: 786-0 renal; IGROV1 ovarian; KM12 colon; OVCAR-5 ovarian; RPMI-8226 leukemia; SK-MEL-5 melanoma; TK-10 renal; NCI-H226 lung.
What all share (experiment): NCI tumour cell line growth inhibition, 48 h

`O=C(O)/C(=C/C=C/c1ccccc1)c1csc(-c2nc(/C(=C\C=C\c3ccccc3)C(=O)O)cs2)n1`: the TGI is 56.1 µM in the assay with 786-0 renal; greater than 100 µM with IGROV1 ovarian; 92.4 µM in the assay on KM12 colon; greater than 100 µM in the assay with OVCAR-5 ovarian; 65.3 µM in the assay on RPMI-8226 leukemia; 86.3 µM in the assay with SK-MEL-5 melanoma. For the same compound, the TGI in the assay with TK-10 renal was greater than 100 µM.
On to `S=c1cc(S)sc2c1c(=S)sc1nc3ccccn3c(=S)c12`, for which the TGI in the assay with 786-0 renal, with KM12 colon, in the assay on NCI-H226 lung, in the assay with OVCAR-5 ovarian, in the assay on RPMI-8226 leukemia and in the assay on SK-MEL-5 melanoma was greater than 100 µM each time. In the assay on TK-10 renal, this compound yielded a TGI greater than 100 µM.
Turning to `O=C(Cn1ccnc1[N+](=O)[O-])c1ccc(F)cc1`, the TGI in the assay with 786-0 renal, in the assay with IGROV1 ovarian, in the assay with KM12 colon, in the assay on NCI-H226 lung, with OVCAR-5 ovarian and with RPMI-8226 leukemia was greater than 100 µM throughout. Further, the TGI in the assay on SK-MEL-5 melanoma and in the assay with TK-10 renal was greater than 100 µM in each case.
As for `COC1OC(COCc2ccc(Cl)cc2)C(OCc2ccc(Cl)cc2)C1N=[N+]=[N-]` (stereo not given), the TGI in the assay on 786-0 renal was 16.8 µM; in the assay with IGROV1 ovarian, greater than 100 µM; with KM12 colon it was greater than 100 µM; with NCI-H226 lung it was greater than 100 µM; in the assay with OVCAR-5 ovarian, greater than 100 µM; in the assay with RPMI-8226 leukemia, greater than 100 µM. For the same compound, the TGI in the assay on SK-MEL-5 melanoma and in the assay with TK-10 renal was greater than 100 µM in each case.
In the case of `C1=CC=C2NCCCNC3=CC=CC=CC3=NCCCN=C2C=C1`, the TGI in the assay with 786-0 renal, in the assay with IGROV1 ovarian, in the assay on KM12 colon, in the assay on NCI-H226 lung, with OVCAR-5 ovarian and in the assay on RPMI-8226 leukemia was greater than 100 µM each time. The TGI with SK-MEL-5 melanoma and in the assay on TK-10 renal was greater than 100 µM in each case.
On to `CC(C)(C)c1cc2c3c(c1)C(C(F)(F)F)(C(F)(F)F)O[Te]3(C)OC2(C(F)(F)F)C(F)(F)F`, for which the TGI in the assay on 786-0 renal, in the assay on IGROV1 ovarian, in the assay on KM12 colon, in the assay with NCI-H226 lung, in the assay on OVCAR-5 ovarian and with RPMI-8226 leukemia was greater than 100 µM each time. In the assay on TK-10 renal, this compound registered a TGI greater than 100 µM.
Take `CC(=O)OC(CCC1(C)OC1COc1ccc(CCNC(=O)c2ccccc2)cc1)C(C)(C)OC(C)=O` (stereo not given): the TGI in the assay on 786-0 renal is greater than 100 µM; in the assay on IGROV1 ovarian it was greater than 100 µM; with KM12 colon it was 33.7 µM; in the assay on NCI-H226 lung it was greater than 100 µM; in the assay on OVCAR-5 ovarian it was greater than 100 µM; with RPMI-8226 leukemia, greater than 100 µM. For the same compound, the TGI in the assay on SK-MEL-5 melanoma was 17.4 µM; in the assay on TK-10 renal, greater than 100 µM.
Turning to `CC1(C)Cc2cc(C(=O)O)c3c(c2C1=O)COCC3`, the TGI with 786-0 renal, in the assay with IGROV1 ovarian, in the assay with KM12 colon, with NCI-H226 lung, with OVCAR-5 ovarian and in the assay on RPMI-8226 leukemia was greater than 100 µM throughout. In addition, in the assay with SK-MEL-5 melanoma, the TGI is greater than 100 µM.
As for `O=CC[C@H]1CCc2ccccc2C12CCC(=O)CC2`, the TGI with 786-0 renal, with IGROV1 ovarian, in the assay with KM12 colon, with NCI-H226 lung, in the assay with OVCAR-5 ovarian and with RPMI-8226 leukemia was greater than 100 µM each time. In the assay on SK-MEL-5 melanoma, this compound registered a TGI greater than 100 µM.
With `CCc1cccc(C(C)C)c1NC(=O)C(=O)C(CC(=O)Nc1ccc(Cl)c(Cl)c1)C(=O)OC` (stereo not given), the TGI in the assay on 786-0 renal, in the assay with IGROV1 ovarian, in the assay on KM12 colon, in the assay on NCI-H226 lung, with OVCAR-5 ovarian and in the assay on RPMI-8226 leukemia was greater than 100 µM in each case. Moreover, the TGI in the assay with SK-MEL-5 melanoma and with TK-10 renal was greater than 100 µM each time.
Consider `Cc1cc(C)nc(NS(=O)(=O)c2ccc(Nc3c4ccc(Cl)cc4nc4c(C(=O)Nc5ccc(S(N)(=O)=O)cc5)cccc34)cc2)n1`, for which the TGI worked out at 28.7 µM in the assay with 786-0 renal; 27.2 µM in the assay on KM12 colon; 28.8 µM in the assay on OVCAR-5 ovarian; 76.5 µM in the assay on RPMI-8226 leukemia; 89.6 µM with TK-10 renal.
`CN(C)CCNC(=O)c1cccc2c1nc(-c1ccccc1)c1ccccc12`: the TGI in the assay with 786-0 renal worked out at 16.6 µM; in the assay with IGROV1 ovarian, 18.2 µM; in the assay with KM12 colon it was 20.1 µM; in the assay with NCI-H226 lung it was 12.5 µM; with OVCAR-5 ovarian, 17.6 µM; in the assay on SK-MEL-5 melanoma it was 5.52 µM. The same compound gave a TGI in the assay on TK-10 renal of 14.4 µM.
In the case of `CCc1cccc(C(C)C)c1N1C(=O)C(=O)C(c2nc3ccccc3s2)C(=O)C1=O`, the TGI with 786-0 renal, in the assay on IGROV1 ovarian, with KM12 colon, in the assay on OVCAR-5 ovarian, with RPMI-8226 leukemia and in the assay with SK-MEL-5 melanoma was greater than 50 µM each time. The compound also came in with a TGI with TK-10 renal greater than 50 µM.
On to `Clc1ccc(C2SCc3nc4ccccc4n32)cc1Cl` (stereo not given), for which the TGI in the assay on 786-0 renal is 27.3 µM; with IGROV1 ovarian, 38.8 µM; in the assay with KM12 colon it was 27 µM; in the assay with NCI-H226 lung, 41.3 µM; with OVCAR-5 ovarian, 22.8 µM; in the assay with RPMI-8226 leukemia it was 96.1 µM. For the same compound, the TGI amounted to 21 µM in the assay on SK-MEL-5 melanoma and 25.9 µM in the assay on TK-10 renal.
With `CC1C[C@@H]2C(=O)NC(=O)[C@@H]2c2c1c1ccccc1n2C` (stereo not given in full), the TGI with 786-0 renal, in the assay with IGROV1 ovarian, with KM12 colon, in the assay on NCI-H226 lung, with RPMI-8226 leukemia and in the assay with SK-MEL-5 melanoma was greater than 100 µM throughout. Moreover, the TGI in the assay with TK-10 renal is greater than 100 µM.
With `C=C(Br)N(CC)CC`, the TGI in the assay with 786-0 renal, in the assay on IGROV1 ovarian, in the assay on KM12 colon, in the assay with NCI-H226 lung, in the assay on OVCAR-5 ovarian and in the assay on RPMI-8226 leukemia was greater than 100 µM throughout. Further, the TGI in the assay with SK-MEL-5 melanoma and in the assay on TK-10 renal was greater than 100 µM throughout.
Turning to `CCC1CN2CCc3c([nH]c4ccccc34)C2C[C@@H]1CC(=O)N(C)C` (stereo not given in full), the TGI in the assay with 786-0 renal, in the assay with IGROV1 ovarian, in the assay on KM12 colon, in the assay on NCI-H226 lung, in the assay on OVCAR-5 ovarian and in the assay with SK-MEL-5 melanoma was greater than 100 µM throughout. In the assay with TK-10 renal, this compound yielded a TGI greater than 100 µM.
Consider `Cc1ccc(S(=O)(=O)OCC23CCC(CC2)C2CC23)cc1` (stereo not given), for which the TGI is greater than 100 µM with 786-0 renal; greater than 100 µM in the assay with IGROV1 ovarian; greater than 100 µM with NCI-H226 lung; greater than 100 µM with OVCAR-5 ovarian; 87.8 µM in the assay on RPMI-8226 leukemia; 75.4 µM in the assay on SK-MEL-5 melanoma. In addition, the TGI in the assay on TK-10 renal was greater than 100 µM.
Take `CCCCCCCCCCCCCP(=O)(O)OCC`: the TGI in the assay on 786-0 renal, with IGROV1 ovarian, with KM12 colon, in the assay on NCI-H226 lung, in the assay with OVCAR-5 ovarian and with SK-MEL-5 melanoma was greater than 100 µM each time. The compound also yielded a TGI in the assay on TK-10 renal greater than 100 µM.
As for `CCOC(=O)C1=C(C)N(c2ccc(C)cc2)C2=C(C(=O)N(c3ccccc3)C2c2ccccc2)C1c1ccccc1` (stereo not given), the TGI in the assay with 786-0 renal, in the assay on IGROV1 ovarian, in the assay with NCI-H226 lung, with RPMI-8226 leukemia, in the assay with SK-MEL-5 melanoma and with TK-10 renal was greater than 25 µM throughout.
Take `COCCCNC(=O)CC(=O)NCCCOC`: the TGI in the assay with 786-0 renal, in the assay on IGROV1 ovarian, in the assay with KM12 colon, with OVCAR-5 ovarian, in the assay with RPMI-8226 leukemia and with SK-MEL-5 melanoma was greater than 100 µM in each case. In addition, the TGI in the assay on TK-10 renal was greater than 100 µM.
`O=[N+]([O-])c1cccc(C2ON2C2CCCCC2)c1` (stereo not given): the TGI in the assay on 786-0 renal is 31.2 µM; in the assay on IGROV1 ovarian, 44.8 µM; in the assay on KM12 colon it was 21 µM; in the assay with OVCAR-5 ovarian, greater than 100 µM; in the assay on RPMI-8226 leukemia, 7.98 µM; in the assay with SK-MEL-5 melanoma, 33 µM. This compound also displayed a TGI in the assay with TK-10 renal of 77 µM.
For `O=C(CCC(=O)C(C(=O)c1ccccc1)c1ccccc1)Nc1cccc(C(F)(F)F)c1` (stereo not given), the TGI in the assay with 786-0 renal, with IGROV1 ovarian, in the assay on KM12 colon, in the assay on NCI-H226 lung, with OVCAR-5 ovarian and with RPMI-8226 leukemia was greater than 100 µM each time. Further, the TGI with TK-10 renal was greater than 100 µM.
`C[C@]1(CO)CCC[C@@]2(C)C1CC[C@H]1CC3C[C@]12CC[C@]3(C)O` (stereo not given in full): the TGI in the assay on 786-0 renal is greater than 100 µM; with KM12 colon, greater than 100 µM; in the assay with NCI-H226 lung it was greater than 100 µM; with OVCAR-5 ovarian it was greater than 100 µM; in the assay on RPMI-8226 leukemia it was greater than 100 µM; in the assay with SK-MEL-5 melanoma, 35.2 µM. The same compound had a TGI in the assay with TK-10 renal greater than 100 µM.
Take `NCCCNCCCCN(CCCN)/[N+]([O-])=N\O`: the TGI in the assay with 786-0 renal, with IGROV1 ovarian, with KM12 colon, in the assay on NCI-H226 lung, in the assay on OVCAR-5 ovarian and in the assay with RPMI-8226 leukemia was greater than 100 µM throughout. Also, in the assay with SK-MEL-5 melanoma, the TGI was greater than 100 µM.
Consider `Fc1ccccc1C1CC(c2ccc3ccccc3c2)=Nc2ccccc2S1` (stereo not given), for which the TGI in the assay on 786-0 renal, in the assay with IGROV1 ovarian, in the assay with KM12 colon, in the assay with NCI-H226 lung, in the assay with OVCAR-5 ovarian and in the assay on TK-10 renal was greater than 100 µM throughout.

Source of the values: PubChem BioAssay (NCI).
